For data set [1], the system named is L-, T- and N-type Ca^2+ channels. The conditions noted are these: cited from earlier work.
The conditions of data set [2]: rats, 24 hr after oral administration; cited from earlier work.
The conditions of data set [3]: humans; cited from earlier work.
Data set [4] concerns NMDA, kainate or AMPA binding sites. The conditions noted are these: cited from earlier work.
In another data set the test system is PC12 cells. In words: Intracellular calcium quantification after glutamate challenge (Fura-2). The conditions noted are these: glutamate 10 mM, 24 hr; nanospheres 25 μg mL^−1, free lomerizine 1 μM; relative to ENP; dihydrochloride. The class given is cell-based, rat. An excerpt: The pH in early endosomes is mildly acidic and falls below 5 as endosomes mature, so release of lomerizine from nanospheres could be triggered under these conditions. Here, we administered lomerizine to PC12 cells using nanospheres, and measured intracellular calcium concentrations after glutamate challenge to see if intracellular release of lomerizine could be employed for neuroprotection. PC12 cells express both N- and L-type VGCCs, but not T-type channels, and in undifferentiated PC12 cells, glutamate exposure (1-10 mm) over 24 hr causes oxidative stress and increased [Ca^2+]i.
Cells receiving nanosphere treatments were incubated with nanospheres containing lomerizine, with or without modification with PEI (LNP+PEI and LNP−PEI respectively), or nanospheres containing no lomerizine but with PEI modification (ENP). […]
For experiments, cells were seeded in 24-well plates containing 10 mm glass coverslips coated with poly(l-lysine) at a cell density of 5.0×10^4 mL^−1. […] After a further 24 hr, [Ca^2+]i was quantified as follows. […] Fluorescent data were measured on a Hamamatsu Orca ER digital camera attached to an inverted Nikon TE2000-U microscope, and analysed using Metamorph v6.3. […] [Ca^2+]i was calculated according to the equation: […]
A general note: A change in cytosolic calcium serves as a functional read-out for many receptors and channels.

Each structure is given as a SMILES string.

The values below come from patent US20140050670A1, “MULTIFUNCTIONAL NANOPARTICLES” (THE UNIVERSITY OF WESTERN AUSTRALIA, priority 2010, published 2014).

Consider `COc1ccc(CN2CCN(C(c3ccc(F)cc3)c3ccc(F)cc3)CC2)c(OC)c1OC.Cl.Cl` [Lomerizine, 1-[bis(4-fluorophenyl)methyl]-4-(2,3,4-trimethoxybenzyl)piperazine dihydrochloride], for which, in data set [1], the “calcium channel blockade selectivity” value is “selectively blocks L- and T-type Ca^2+ channels, but not N-type channels”. Further, in data set [2], the “dose excreted in the feces” value is 51.7% and the “dose excreted in urine” value was 4.1%. The elimination half-life in data set [3] was 108 h. For the same compound, in data set [4], the “affinity for NMDA, kainate or AMPA binding sites” value is “no reported affinity”. Also, in the data set with PC12 cells, the “intracellular calcium [Ca^2+]i after glutamate” value is “significant (p≦0.001) decrease”.
